Experiments:
[1] = system: primary human lung tissue; test: Ex vivo fibre-based (FCFM) imaging of human lung tissue with FIB One; conditions: marimastat 100 μM, FIB One 1 μM, 10 min, n=9, P=0.0215
Protocol: Human lung tissue samples (lung tumour and noncancerous adjacent tissue) were obtained following surgical resection and stored at -80° C until use. Processing for multiwell plate reader assay or zymography analysis was conducted as follows: 1 mm×4 mm sections were homogenised in 400 μL MMP buffer in Precellys 2.8 mm ceramic bead tubes (VWR) using a Pecellys 24 homogeniser. Homogenised tissue was adjusted to 4 mg mL^-1 protein (determined by a Pierce BCA Total Protein Assay Kit (Thermo Fisher Scientific), following the manufacturer’s instructions). Multiwell plate reader assays were performed as previously described, replacing the MMP buffer and MMP enzymes for the homogenised and protein-adjusted lung tissue.
For ex vivo imaging, human lung tissue was sliced into 1 mm×4 mm sections and placed in the wells of a 96-well plate with 100 μL of MMP buffer and 30 nM MMP-13. […] The fluorescence for each sample was calculated by determining the average fluorescence per frame for each time point. […] Five independent patient specimens were collected and analysed. RFUs collected from off-target frames (showing motion artefact or absence of any fluorescence) were omitted during analysis.

[2] = target: T1, MMP-9 (Homo sapiens, UniProt P14780); test: In vitro enzymatic validation of FIB One with recombinant MMP-9 (plate reader); type: biochemical; conditions: marimastat 20 μM, enzyme pre-incubated 30 min at 37°C, FIB One 1 μM, MMP 30 nM
T1 construct: recombinant MMPs (Enzo Life Sciences) (active domains of MMP-1, MMP-2, MMP-3, MMP-7, MMP-8, MMP-9, MMP-10, MMP-11, MMP-12, and MMP-13); purchased Enzo Life Sciences
Protocol: (§1) To determine the enzymatic specificity of FIB One, the probe was incubated at a concentration of 1 μM (unless otherwise stated) with the recombinant MMPs (Enzo Life Sciences) (active domains of MMP-1, MMP-2, MMP-3, MMP-7, MMP-8, MMP-9, MMP-10, MMP-11, MMP-12, and MMP-13, all at 30 nM), thrombin (Sigma Aldrich) (5 U/mL), factor Xa (Sigma Aldrich) (500 nM), plasmin (Sigma Aldrich) (30 nM), and human neutrophil elastase (30 nM). Where appropriate, enzymes were incubated with specific inhibitors for 30 min at 37°C prior to addition of FIB One. […] Enzyme free reactions served as a control. Enzymatic reactions were performed in MMP buffer (10 mM CaCl2, 6.1 g Tris-HCl, 8.6 g NaCl per litre, pH 7.5) in a final volume of 20 μL. Reactions were performed in duplicate in 384-well plates (Life Technologies) with optically clear plate seals (Thermo Scientific) and repeated thrice (independently). Fluorescence signal was measured for up to 60 min, ex/em 485/528 nm using microplate reader (BioTek Synergy H1 multimode reader). Data were normalised to buffer alone and are presented as fold-change in signal (relative fluorescent units, RFU) compared to enzyme-free controls. Data were plotted using Prism 7 (GraphPad Software Inc., La Jolla, CA, USA).

[3] = system: stimulated human neutrophils; test: FIB One cleavage in supernatant from stimulated neutrophils; type: cell-based; conditions: coincubation with marimastat, FIB One 1 μM, 10 min
Protocol: Neutrophils were isolated from the blood of healthy human volunteers as previously described. The number of retrieved neutrophils was determined with NucleoCounter NC-1000 (Chemo Metec). Neutrophils were resuspended at a concentration of 20×10^6 mL^-1 in 0.9% NaCl with 0.9 mM CaCl2. Cells were incubated for 30 min at 37°C. Cells to be stimulated were subsequently activated with 5 μM calcium ionophore A23187 (Tocris Bioscience) for 30 min at 37°C. Neutrophils were harvested by centrifugation at 400 x g for 5 min. Supernatants were removed and stored. Plate reader assays were performed as described above, with the MMP buffer replaced with neutrophil supernatant. All experiments were carried out in duplicate using three independent donors (one donor per independent repeat). Data were normalised by background subtraction of intrinsic fluorescence.

[4] = target: T2, MMP-2 (Homo sapiens, UniProt P08253); test: In vitro enzymatic validation of FIB One with recombinant MMP-2 (plate reader); type: biochemical; conditions: marimastat 20 μM, enzyme pre-incubated 30 min at 37°C, FIB One 1 μM, MMP 30 nM
T2 construct: recombinant MMPs (Enzo Life Sciences) (active domains of MMP-1, MMP-2, MMP-3, MMP-7, MMP-8, MMP-9, MMP-10, MMP-11, MMP-12, and MMP-13); purchased Enzo Life Sciences
Protocol: as §1

[5] = system: MMP activity in ex vivo ventilated ovine lung; test: Ex vivo ovine lung model instilled with OPA supernatant, FCFM imaging; conditions: marimastat 100 μM with OPA supernatant, 5 μM FIB One
Protocol: Ovine pulmonary adenocarcinoma (OPA) tissue was homogenised using a drill homogeniser, followed by lysis in cell lysis buffer. The supernatant was collected following centrifugation at 12,000 rpm for 20 min. The samples were adjusted to 1 mg mL^-1 total protein (determined by a Pierce BCA Total Protein Assay Kit (Thermo Fisher Scientific)). Zymography (as described above) was performed to confirm MMP activity across multiple OPA samples. Recombinant MMP-9 (2 nM) and recombinant pro-MMP-9 (0.5 nM) were included in the assay as positive controls. […] Following >30 min, the segments were bronchoscopically identified and microdosed with 5 μM FIB One in 1 mL. FCFM imaging was undertaken pre- and postinstillation (Cellvizio®, Mauna Kea Technologies). This was performed by passing a FCFM fibre into the disparate bronchopulmonary segments (up to 5 passes per bronchopulmonary segment to capture a regional representation of fluorescence), recording images at 12 frames per second and imaging for up to 5 minutes. Videos were analysed as described above. Each experimental set was normalised to the control segment (segment with 1 mL 0.9% NaCl instilled) which represents intrinsic autofluorescence.

[6] = supernatant from stimulated (5 μM calcium ionophore A23187) neutrophils; conditions: human, up to 10 minutes

T1 sequence (P14780 107-444 limits assumed): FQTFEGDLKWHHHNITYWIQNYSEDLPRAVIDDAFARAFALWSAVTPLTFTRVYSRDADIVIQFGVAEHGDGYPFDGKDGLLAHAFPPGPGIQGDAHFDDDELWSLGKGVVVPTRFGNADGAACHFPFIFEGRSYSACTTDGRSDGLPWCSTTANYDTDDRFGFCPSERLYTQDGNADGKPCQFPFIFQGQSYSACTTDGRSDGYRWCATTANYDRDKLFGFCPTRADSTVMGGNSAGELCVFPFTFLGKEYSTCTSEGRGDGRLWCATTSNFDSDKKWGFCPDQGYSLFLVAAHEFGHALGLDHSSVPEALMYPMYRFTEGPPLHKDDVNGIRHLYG
T2 sequence (P08253 110-446 limits assumed): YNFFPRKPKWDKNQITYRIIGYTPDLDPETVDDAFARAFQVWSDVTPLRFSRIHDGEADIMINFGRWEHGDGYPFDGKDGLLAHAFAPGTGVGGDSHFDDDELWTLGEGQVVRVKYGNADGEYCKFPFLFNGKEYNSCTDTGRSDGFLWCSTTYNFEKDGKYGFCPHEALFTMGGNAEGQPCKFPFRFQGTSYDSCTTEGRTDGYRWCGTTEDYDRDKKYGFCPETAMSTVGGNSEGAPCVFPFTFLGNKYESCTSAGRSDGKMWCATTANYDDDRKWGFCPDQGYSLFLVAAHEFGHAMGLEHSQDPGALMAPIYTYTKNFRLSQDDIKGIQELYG

CNC(=O)[C@@H](NC(=O)[C@H](CC(C)C)[C@H](O)C(=O)NO)C(C)(C)C [marimastat, reference compound]
inhibition of FIB One cleavage [1]: cleavage inhibition observed | inhibition of FIB One activation [2]: blocked | inhibition of FIB One cleavage [3]: cleavage inhibition observed | inhibition of FIB One activation [4]: blocked | FIB One signal in inhibitor-dosed segments [5]: did not show an increase in FIB One signal

FAM-PEG2-Pro-Phe-Gly-Nle-Lys-βAla-Lys(MethylRed)-PEG2-(D)Lys-PEG2-(D)Lys
fragment found [6]: peak at 823 Da, 10 min

Reference: publication PMC10530652 (BME Frontiers, 2021)
